Data taken from patent publication US20260008815A1, “CYCLIC PEPTIDE OR SALT THEREOF, AND USES THEREOF” (FUJIFILM Corporation, priority 2023, published 2026).
Bridge positions count the residues as written; N and C are the ends. Ends that are not written are not given here.

How the values were obtained:
[1] = target: T1, Recombinant Human FGFR2 alpha (IIIc) Fc Chimera Protein (Homo sapiens, UniProt P21802); assay: SPR binding affinity of chemically synthesized cyclic peptide to immobilized FGFR; conditions: SPR binding amount at 10 nmol/L cyclic peptide, 25° C., per one molecule of FGFR; chemically synthesized product
T1 construct: Fc (chimera); purchased R&D systems 712-FR-050
Procedure: The binding affinity of the cyclic peptide to FGFR was evaluated using a surface plasmon resonance (SPR) method.
A CM5 sensor chip (Cytiva, 29149603) was set in Biacore-T200 (manufactured by Cytiva) which is a surface plasmon resonance device, and an HBS-EP buffer (Cytiva, BR100826) was added as a running buffer at a flow rate of 10 μL/min to equilibrate the flow channel. Next, 70 μL of a mixed aqueous solution of 0.2 mol/L 1-(3-dimethylaminopropyl)-3-ethylcarbodiimide (EDC) and 0.05 mol/L N-hydroxysuccinimide (NHS) was added to activate the sensor chip. Then, Recombinant Human FGFR2 alpha (IIIc) Fc Chimera Protein CF (R&D systems, 712-FR-050) prepared at 50 nmol/L in an Acetate 4.5 buffer (Cytiva, BR100350) was added thereto to perform immobilization at about 5000 RU. Thereafter, the blocking treatment was performed with an ethanolamine solution. In addition, in another flow channel of the same sensor chip, blocking treatment was performed immediately after activation without immobilizing FGFR.
A cyclic peptide diluted to 10 nmol/L using HBS-EP was added to each flow channel of the FGFR-immobilized sensor chip produced above at 25° C. for 10 minutes, then HBS-EP was allowed to flow as a running buffer for 30 minutes, and the binding of the cyclic peptide to FGFR was measured. Thereafter, a regeneration treatment of removing the bound cyclic peptide was performed by repeating the flow of a regeneration liquid in which sodium chloride powder was dissolved in Glysine 1.5 (Cytiva, BR100354) to a final concentration of 0.15 mol/L for 1 minute in each flow channel twice. The binding amount of the cyclic peptide was evaluated from the difference between the measured value of Biacore-T200 in the flow channel in which FGFR was immobilized and the measured value of Biacore-T200 in the flow channel in which FGFR was not immobilated, in a case where a 10 nmol/L cyclic peptide was allowed to flow.
The binding amount of the cyclic peptide evaluated above was normalized to the binding amount of the cyclic peptide molecules per one molecule of FGFR using the molecular weights of the cyclic peptide and FGFR, and the binding affinity to FGFR was evaluated according to the following evaluation criteria. The evaluation result preferably satisfies the evaluation criteria A, B, or C.

[2] = Molecular stability after reducing agent (DTT) treatment, LC; type: physicochemical; conditions: residual rate after DTT aqueous solution, room temperature, 1 hour
Procedure: The molecular stability of the cyclic peptide was evaluated by analyzing an aqueous solution of the cyclic peptide treated with a reducing agent by liquid chromatography (LC).
The reducing agent treatment was performed under the following conditions based on the concentration of glutathione contained in the cells. 25 μL of a 0.2 mg/mL cyclic peptide aqueous solution was prepared, 58.8 μL of a 12.6 mmol/L DTT aqueous solution was added to the aqueous solution, and the mixture was incubated at room temperature for 1 hour to obtain an aqueous solution of the cyclic peptide treated with a reducing agent. The DTT aqueous solution was used by diluting a 1 mol/L (+−)-dithiothreitol (DTT) solution (FUJIFILM Wako Pure Chemical Corporation, 044-33871) with water. The total area of all the peaks in LC/MS of the cyclic peptide before the reducing agent treatment was set to 100%, and the proportion of the total area of all the peaks in LC/MS of the aqueous solution of the cyclic peptide treated with the reducing agent was determined to calculate the residual rate of the cyclic peptide, and the molecular stability was evaluated according to the following evaluation criteria. The evaluation result preferably satisfies the evaluation criteria A, B, or C.
The LC used for the evaluation of molecular stability was set to the following conditions. • LC device: Prominence series (pump, column oven, autosampler, detector) (manufactured by Shimadzu Corporation) • Detector: photodiode array detector (SPD-M20A), measurement wavelength of 280 nm • Column: TSKgel ODS-100V, inner diameter of 4.6 mm×length of 150 mm, particle diameter of 5 μm (manufactured by Tosoh Corporation) • Eluent A: solution containing 0.1% trifluoroacetic acid as solute, and solvent is 100% water • Eluent B: solution containing 0.1% trifluoroacetic acid as solute, and solvent is 100% acetonitrile • Flow rate: 1.0 mL/min • Injection amount: 25 μL • Gradient: 20% to 50%: Eluent B (0 to 15 minutes), 100%: Eluent B (15 minutes) • Column temperature: 40° C.

[3] = test system: BaF3 cells stably expressing FGFR (avian); assay: BaF3 cell proliferation-promoting effect; type: cell-based; conditions: number of viable cells at the addition concentration (0.001 to 10 nmol/L) giving the largest number; 2 nights; negative control about 100 cells/well
Procedure: (§1) The FGFR phosphorylation ability of the cyclic peptide complex was evaluated using the BaF3 cell proliferation-promoting effect in which FGFR was stably expressed.
(§2) BaF3 cells stably expressing FGFR were established by introducing a vector (human: Sino Biologicals, HG10824-UT, bovine: sequence of Accession No. F1MNW2 was introduced into pCDNA3.1/Hygro(+) Mammalian Expression Vector (Thermo, V87020), porcine: sequence of Accession No. A0A4X1SNN3 was introduced into pCDNA3.1/Hygro(+) Mammalian Expression Vector (Thermo, V87020), and avian: sequence of Accession No. A0A8V0XB17 was introduced into pCDNA3.1/Hygro(+) Mammalian Expression Vector (Thermo, V87020)) into which FGFR gene had been incorporated, into BaF3 cells using NucleoFector (Lonza) and performing drug selection of cells into which the FGFR gene had been introduced using hygromycin.
(§3) The evaluation of the proliferation-promoting effect of BaF3 cells in which FGFR is stably expressed was performed by the following method. First, RPMI-1640 with L-Glutamine and Phenol Red (FUJIFILM Wako Pure Chemical Corporation, 189-02025) and Fetal Bovine Serum (Thermo, 10270-106) were mixed at a volume ratio of 9:1, and then heparin (STEM CELL, 07980) was added thereto such that the final concentration thereof was 8 μg/mL, thereby preparing a culture medium for evaluation (hereinafter, described as RPMI (10% FBS) medium). Next, the BaF3 cells in which FGFR had been stably expressed were washed twice with RPMI (10% FBS) culture medium, suspended in RPMI (10% FBS) culture medium in which the cyclic peptide complex had been dissolved to a final concentration of 0.001 to 10 nmol/L, and seeded in a 384-well plate. In this case, a condition in which the cyclic peptide complex was not added as a negative control was prepared. After culturing at 37° C. (5% CO2) for 2 nights, Hoechst 33342, Trihydrochloride, Trihydrate-10 mg/mL Solution in Water (Thermo, H3570), -Cellstain (registered trademark)-Calcein-AM solution (1 mg/mL DMSO solution) (DOJINDO, C396), and -Cellstain (registered trademark)-PI solution (DOJINDO, P378) were each added to RPMI (10% FBS) culture medium in a volume amount of 1/1,000 at the final concentration, and live/dead staining of the cells were performed by allowing to stand at room temperature for 1 hour, and imaging was performed using a confocal microscope (Yokogawa Electric Corporation, CQ1). The number of viable cells was calculated from the imaging data, and the cell proliferation-promoting effect was evaluated according to the following evaluation criteria. The number of viable cells in the negative control was about 100 cells/well. The evaluation result preferably satisfies the evaluation criteria A, B, or C.
(§4) At an addition concentration of the cyclic peptide complex having the largest number of viable cells, evaluation criteria is as follows.

[4] = test system: BaF3 cells stably expressing FGFR (bovine); assay: BaF3 cell proliferation-promoting effect; type: cell-based; conditions: number of viable cells at the addition concentration (0.001 to 10 nmol/L) giving the largest number; 2 nights; negative control about 100 cells/well
Procedure: as §1, §2, §3, §4

[5] = test system: BaF3 cells stably expressing FGFR (human); assay: BaF3 cell proliferation-promoting effect; type: cell-based; conditions: number of viable cells at the addition concentration (0.001 to 10 nmol/L) giving the largest number; 2 nights; negative control about 100 cells/well
Procedure: as §1, §2, §3, §4

[6] = test system: BaF3 cells stably expressing FGFR (porcine); assay: BaF3 cell proliferation-promoting effect; type: cell-based; conditions: number of viable cells at the addition concentration (0.001 to 10 nmol/L) giving the largest number; 2 nights; negative control about 100 cells/well
Procedure: as §1, §2, §3, §4

T1 sequence (P21802 with tags, fused parts or gaps limits assumed): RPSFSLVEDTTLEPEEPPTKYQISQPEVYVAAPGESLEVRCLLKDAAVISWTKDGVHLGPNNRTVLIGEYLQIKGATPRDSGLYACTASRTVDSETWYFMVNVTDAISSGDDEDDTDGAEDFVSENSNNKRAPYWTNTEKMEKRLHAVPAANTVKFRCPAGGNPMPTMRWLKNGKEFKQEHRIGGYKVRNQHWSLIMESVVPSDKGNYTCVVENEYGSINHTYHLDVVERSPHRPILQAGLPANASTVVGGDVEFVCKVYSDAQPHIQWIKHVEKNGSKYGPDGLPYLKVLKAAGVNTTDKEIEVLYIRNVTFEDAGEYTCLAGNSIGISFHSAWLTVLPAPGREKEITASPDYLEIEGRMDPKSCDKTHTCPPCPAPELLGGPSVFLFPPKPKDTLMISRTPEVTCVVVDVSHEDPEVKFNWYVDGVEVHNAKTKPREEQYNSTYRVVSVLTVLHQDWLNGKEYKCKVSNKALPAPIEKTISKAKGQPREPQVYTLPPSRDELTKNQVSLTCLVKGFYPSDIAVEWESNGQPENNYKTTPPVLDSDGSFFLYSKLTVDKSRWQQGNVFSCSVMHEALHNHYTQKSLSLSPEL

Substance | Evaluation result of binding affinity to FGFR [1] | Evaluation result of reductive stability [2] | Evaluation result of cell proliferative properties Avian [3] | Evaluation result of cell proliferative properties Bovine [4] | Evaluation result of cell proliferative properties Human [5] | Evaluation result of cell proliferative properties Porcine [6]
447 (YXEENYLDPEQYQYFIYFXYKKK; not fully specified; Description of Artificial Sequence: Cyclic peptide) [compound 447] | A (The binding amount is 0.7 molecules of the cyclic peptide/one molecule of FGFR or more.) | A (The residual rate of cyclic peptide is 90% or more.) |  |  |  | 
448 (YXEENYLDPEQYQYFIYFXYKKK; not fully specified; Description of Artificial Sequence: Cyclic peptide) [compound 448] | A (The binding amount is 0.7 molecules of the cyclic peptide/one molecule of FGFR or more.) | A (The residual rate of cyclic peptide is 90% or more.) |  |  |  | 
449 (YXEENYLDPEQYQYFIYFXYKKK; not fully specified; Description of Artificial Sequence: Cyclic peptide) [compound 449] | A (The binding amount is 0.7 molecules of the cyclic peptide/one molecule of FGFR or more.) | A (The residual rate of cyclic peptide is 90% or more.) |  |  |  | 
451 (YCEENYLDPEQYQYFIYFCYKKK; disulfide 2-19) [compound 451] | D (The binding amount is less than 0.1 molecules of the cyclic peptide/one molecule of FGFR.) | D (The residual rate of the cyclic peptide is less than 50%) |  |  |  | 
452 (YXHENYLDPEQYQYFHYFKYKKK; Description of Artificial Sequence: Cyclic peptide) [compound 452] | A (The binding amount is 0.7 molecules of the cyclic peptide/one molecule of FGFR or more.) | A (The residual rate of cyclic peptide is 90% or more.) |  |  |  | 
453 (YXHENYLDPEQYQYFHYFKKKK; Description of Artificial Sequence: Cyclic peptide) [compound 453] | C (The binding amount is 0.1 molecules of cyclic peptide/one molecule of FGFR or more and less than 0.5 molecules of cyclic peptide/one molecule of FGFR.) | A (The residual rate of cyclic peptide is 90% or more.) |  |  |  | 
454 (XHENYLDPEQYQYFHYFKYKKK; Description of Artificial Sequence: Cyclic peptide) [compound 454] | C (The binding amount is 0.1 molecules of cyclic peptide/one molecule of FGFR or more and less than 0.5 molecules of cyclic peptide/one molecule of FGFR.) | B (The residual rate of the cyclic peptide is 70% or more and less than 90%) |  |  |  | 
455 (KCPQNFINPVQWRYFQHYKNGSGSGSSGSSSGSSKCPQNFINPVQWRYFQHYKN; also: cyclic peptide) [compound 455] |  |  | C (The number of viable cells is 200 cells/well or more and less than 400 cells/well.) | B (The number of viable cells is 400 cells/well or more and less than 1,000 cells/well.) | A (The number of viable cells is 1,000 cells/well or more.) | A (The number of viable cells is 1,000 cells/well or more.)
456 (QCPQNFINPVQWRYFQHYKNKQCPQNFINPVQWRYFQHYKNK; also: cyclic peptide) [compound 456] |  |  | A (The number of viable cells is 1,000 cells/well or more.) | A (The number of viable cells is 1,000 cells/well or more.) | A (The number of viable cells is 1,000 cells/well or more.) | A (The number of viable cells is 1,000 cells/well or more.)
457 (QCPQNFINPVQWRYFQHYKNKQCPQNFINPVQWRYFQHYKNK; also: cyclic peptide) [compound 457] |  |  | A (The number of viable cells is 1,000 cells/well or more.) | A (The number of viable cells is 1,000 cells/well or more.) | A (The number of viable cells is 1,000 cells/well or more.) | A (The number of viable cells is 1,000 cells/well or more.)
458 (QCPQNFINPVQWRYFQHYKNKQCPQNFINPVQWRYFQHYKNK; also: cyclic peptide) [compound 458] |  |  | A (The number of viable cells is 1,000 cells/well or more.) | A (The number of viable cells is 1,000 cells/well or more.) | A (The number of viable cells is 1,000 cells/well or more.) | A (The number of viable cells is 1,000 cells/well or more.)
